The values that follow come from ChEMBL document CHEMBL5614416, “Discovery of novel thiophene[3,2-d]pyrimidine-based tubulin inhibitors with enhanced antitumor efficacy for combined use with anti-pd-l1 immunotherapy in melanoma” (Eur J Med Chem, 2024).

Molecules are shown by their SMILES. Activity calls are given as the source filed them. The calls are words filed in the database; no cut-off is given here.

A short description of data set [1]: Toxicity in C57 mouse xenografted with mouse B16-F10 cells assessed as WBC count at 7 mg/kg, ip qd for 12 days by biochemical analysis (reference value: 8.240 to 8.340 10^9/L). The class given is organism-based. Conditions: in vivo, 288 h, time 12 day.
In data set [2] the test system is B16-F10. Description: Induction of cell cycle arrest in mouse B16-F10 cells assessed as accumulation of cells at G1 phase at 1 nM incubated for 12 hrs by flow cytometry (reference value: 52.0 %). The class given is functional. On the technique in general: Flow cytometry measures light scatter and fluorescence of single cells or particles in a stream.
Data set [3] concerns B16-F10. Description: Induction of apoptosis in mouse B16-F10 cells assessed as early apoptotic cells at 2 nM incubated for 12 hrs by Annexin V-FITC/PI staining based flow cytometry (reference value: 3.81 %). Type of data set: functional.
Data set [4] deals with B16-F10. Description: Induction of cell cycle arrest in mouse B16-F10 cells assessed as accumulation of cells at S phase at 0.5 nM incubated for 12 hrs by flow cytometry (reference value: 30.5 %). Type of data set: functional.
Data set [5] has as its system B16-F10. Description: Antitumor activity against mouse B16-F10 cells xenografted in C57 mouse assessed as suppression of tumor growth at 7 mg/kg, ip qd for 12 days. The class given is functional, organism-based. Conditions: time 12.0 day.
In the next data set the test system is MCF7. In words: Inhibition of cell migration in human MCF7 cells assessed as reduction in wound closure incubated for 24 hrs by wound healing assay. Type of data set: functional, cell-based.

As for `Cc1nc(N(C)c2ccc3c(ccn3C)c2)c2sccc2n1`, the Activity in data set [1] was 2.51 10^9/L; in the data set on B16-F10 [2] it was 13.8%; with B16-F10 [3], 14.2%; in the data set on B16-F10 [4], 15.9%. In the data set on B16-F10 [5], the outcome was Active. In addition, the inhibition result in the data set with MCF7 is “Dose-Dependent Effect”.
